The values below are quoted from earlier work in article PMC9851200, “Multiparameter phenotypic screening for endogenous TFEB and TFE3 translocation identifies novel chemical series modulating lysosome function” (Autophagy, 2022).

SMILES strings stand for the structures.

What all share (set-up): method as in original PKIS2 published data
Data set [1] deals with kinases (KINOMEscan panel) (Homo sapiens, UniProt P48729). Particulars: CSNK1A1; Published KINOMEscan; ref original PKIS2 published data; cited from earlier work.
Data set [2] concerns the target T1, kinases (KINOMEscan panel) (Homo sapiens, UniProt Q8N568).
T1 sequence (Q8N568 1-766): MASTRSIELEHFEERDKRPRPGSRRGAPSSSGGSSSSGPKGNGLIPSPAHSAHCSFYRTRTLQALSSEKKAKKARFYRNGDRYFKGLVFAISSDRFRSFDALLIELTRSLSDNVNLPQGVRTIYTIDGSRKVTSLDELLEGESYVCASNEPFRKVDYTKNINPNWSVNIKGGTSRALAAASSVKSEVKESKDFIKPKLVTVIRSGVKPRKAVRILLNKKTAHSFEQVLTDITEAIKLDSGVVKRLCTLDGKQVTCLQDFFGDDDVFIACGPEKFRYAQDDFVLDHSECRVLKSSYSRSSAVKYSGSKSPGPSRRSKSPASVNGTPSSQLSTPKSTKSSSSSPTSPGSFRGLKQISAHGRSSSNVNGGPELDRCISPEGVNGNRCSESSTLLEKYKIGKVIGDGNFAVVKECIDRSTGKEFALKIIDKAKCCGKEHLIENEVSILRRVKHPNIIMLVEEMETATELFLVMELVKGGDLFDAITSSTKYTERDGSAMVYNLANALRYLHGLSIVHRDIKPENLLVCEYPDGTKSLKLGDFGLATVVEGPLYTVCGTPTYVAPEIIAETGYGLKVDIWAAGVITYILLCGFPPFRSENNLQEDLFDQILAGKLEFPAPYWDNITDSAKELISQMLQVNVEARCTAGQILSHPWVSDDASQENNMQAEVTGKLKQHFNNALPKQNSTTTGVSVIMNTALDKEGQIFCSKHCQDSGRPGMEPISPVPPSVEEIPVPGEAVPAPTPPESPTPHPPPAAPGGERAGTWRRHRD
Particulars: Published KINOMEscan; ref original PKIS2 published data; cited from earlier work.

The target of data set [3] is T2, kinases (KINOMEscan panel) (Homo sapiens, UniProt P78356).
T2 sequence (P78356 1-416): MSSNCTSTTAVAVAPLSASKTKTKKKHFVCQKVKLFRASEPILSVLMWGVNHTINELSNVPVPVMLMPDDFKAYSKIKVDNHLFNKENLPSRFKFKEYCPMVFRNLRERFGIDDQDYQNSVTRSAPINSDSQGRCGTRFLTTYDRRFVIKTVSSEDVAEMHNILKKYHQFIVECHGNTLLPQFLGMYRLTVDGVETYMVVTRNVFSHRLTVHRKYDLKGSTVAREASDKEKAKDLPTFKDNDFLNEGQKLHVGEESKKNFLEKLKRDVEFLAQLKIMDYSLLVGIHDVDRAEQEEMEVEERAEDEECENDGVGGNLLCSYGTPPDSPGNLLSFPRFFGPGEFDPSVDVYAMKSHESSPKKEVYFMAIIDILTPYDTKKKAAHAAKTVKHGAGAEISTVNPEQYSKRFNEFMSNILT
Particulars: PIP4K2B; Published KINOMEscan; ref original PKIS2 published data; cited from earlier work.

The target of data set [4] is kinases (KINOMEscan panel) (Homo sapiens, UniProt O60331). Conditions: PIP5K1C; Published KINOMEscan; ref original PKIS2 published data; cited from earlier work.
Data set [5] concerns the target kinases (KINOMEscan panel) (Homo sapiens, UniProt P48736). Particulars: kinase PIK3CG; Published KINOMEscan; ref original PKIS2 published data; cited from earlier work.
Data set [6] addresses kinases (KINOMEscan panel) (Homo sapiens, UniProt P23458). Particulars: JAK1(JH1domain-catalytic); Published KINOMEscan; ref original PKIS2 published data; cited from earlier work.
In data set [7] the target is T3, kinases (KINOMEscan panel) (Homo sapiens, UniProt Q13873).
T3 sequence (Q13873 27-1038): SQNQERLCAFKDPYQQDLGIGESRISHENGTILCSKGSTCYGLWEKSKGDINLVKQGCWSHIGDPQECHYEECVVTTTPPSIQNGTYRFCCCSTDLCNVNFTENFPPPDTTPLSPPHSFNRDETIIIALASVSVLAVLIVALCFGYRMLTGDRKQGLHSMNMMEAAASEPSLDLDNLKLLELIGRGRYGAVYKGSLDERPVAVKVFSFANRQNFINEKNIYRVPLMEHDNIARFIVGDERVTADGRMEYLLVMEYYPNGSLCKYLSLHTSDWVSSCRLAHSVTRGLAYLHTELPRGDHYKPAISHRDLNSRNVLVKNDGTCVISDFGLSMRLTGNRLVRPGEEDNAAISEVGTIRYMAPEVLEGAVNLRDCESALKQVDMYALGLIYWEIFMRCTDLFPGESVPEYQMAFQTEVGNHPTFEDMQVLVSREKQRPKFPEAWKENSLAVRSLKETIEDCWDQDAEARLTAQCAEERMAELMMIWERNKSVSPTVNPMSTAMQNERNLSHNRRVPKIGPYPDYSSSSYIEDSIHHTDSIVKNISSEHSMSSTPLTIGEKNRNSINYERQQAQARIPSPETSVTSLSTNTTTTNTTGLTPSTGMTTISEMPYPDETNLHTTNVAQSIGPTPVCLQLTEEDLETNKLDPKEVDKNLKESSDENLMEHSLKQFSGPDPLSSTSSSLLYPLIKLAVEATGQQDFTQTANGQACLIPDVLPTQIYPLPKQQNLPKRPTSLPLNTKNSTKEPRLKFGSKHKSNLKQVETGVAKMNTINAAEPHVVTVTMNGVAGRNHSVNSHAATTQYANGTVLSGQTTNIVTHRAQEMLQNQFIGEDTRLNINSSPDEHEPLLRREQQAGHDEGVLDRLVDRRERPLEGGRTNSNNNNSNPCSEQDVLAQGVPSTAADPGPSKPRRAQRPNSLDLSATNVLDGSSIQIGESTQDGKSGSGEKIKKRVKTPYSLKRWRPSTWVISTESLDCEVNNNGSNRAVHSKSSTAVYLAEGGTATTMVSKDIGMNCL
Particulars: kinase BMPR2; Published KINOMEscan; ref original PKIS2 published data; cited from earlier work.

The target in data set [8] is kinases (KINOMEscan panel) (Homo sapiens, UniProt Q9UM73). Conditions: kinase ALK; Published KINOMEscan; ref original PKIS2 published data; cited from earlier work.
kinases (KINOMEscan panel) (Homo sapiens, UniProt Q9UM73), sequence (Q9UM73 19-1620): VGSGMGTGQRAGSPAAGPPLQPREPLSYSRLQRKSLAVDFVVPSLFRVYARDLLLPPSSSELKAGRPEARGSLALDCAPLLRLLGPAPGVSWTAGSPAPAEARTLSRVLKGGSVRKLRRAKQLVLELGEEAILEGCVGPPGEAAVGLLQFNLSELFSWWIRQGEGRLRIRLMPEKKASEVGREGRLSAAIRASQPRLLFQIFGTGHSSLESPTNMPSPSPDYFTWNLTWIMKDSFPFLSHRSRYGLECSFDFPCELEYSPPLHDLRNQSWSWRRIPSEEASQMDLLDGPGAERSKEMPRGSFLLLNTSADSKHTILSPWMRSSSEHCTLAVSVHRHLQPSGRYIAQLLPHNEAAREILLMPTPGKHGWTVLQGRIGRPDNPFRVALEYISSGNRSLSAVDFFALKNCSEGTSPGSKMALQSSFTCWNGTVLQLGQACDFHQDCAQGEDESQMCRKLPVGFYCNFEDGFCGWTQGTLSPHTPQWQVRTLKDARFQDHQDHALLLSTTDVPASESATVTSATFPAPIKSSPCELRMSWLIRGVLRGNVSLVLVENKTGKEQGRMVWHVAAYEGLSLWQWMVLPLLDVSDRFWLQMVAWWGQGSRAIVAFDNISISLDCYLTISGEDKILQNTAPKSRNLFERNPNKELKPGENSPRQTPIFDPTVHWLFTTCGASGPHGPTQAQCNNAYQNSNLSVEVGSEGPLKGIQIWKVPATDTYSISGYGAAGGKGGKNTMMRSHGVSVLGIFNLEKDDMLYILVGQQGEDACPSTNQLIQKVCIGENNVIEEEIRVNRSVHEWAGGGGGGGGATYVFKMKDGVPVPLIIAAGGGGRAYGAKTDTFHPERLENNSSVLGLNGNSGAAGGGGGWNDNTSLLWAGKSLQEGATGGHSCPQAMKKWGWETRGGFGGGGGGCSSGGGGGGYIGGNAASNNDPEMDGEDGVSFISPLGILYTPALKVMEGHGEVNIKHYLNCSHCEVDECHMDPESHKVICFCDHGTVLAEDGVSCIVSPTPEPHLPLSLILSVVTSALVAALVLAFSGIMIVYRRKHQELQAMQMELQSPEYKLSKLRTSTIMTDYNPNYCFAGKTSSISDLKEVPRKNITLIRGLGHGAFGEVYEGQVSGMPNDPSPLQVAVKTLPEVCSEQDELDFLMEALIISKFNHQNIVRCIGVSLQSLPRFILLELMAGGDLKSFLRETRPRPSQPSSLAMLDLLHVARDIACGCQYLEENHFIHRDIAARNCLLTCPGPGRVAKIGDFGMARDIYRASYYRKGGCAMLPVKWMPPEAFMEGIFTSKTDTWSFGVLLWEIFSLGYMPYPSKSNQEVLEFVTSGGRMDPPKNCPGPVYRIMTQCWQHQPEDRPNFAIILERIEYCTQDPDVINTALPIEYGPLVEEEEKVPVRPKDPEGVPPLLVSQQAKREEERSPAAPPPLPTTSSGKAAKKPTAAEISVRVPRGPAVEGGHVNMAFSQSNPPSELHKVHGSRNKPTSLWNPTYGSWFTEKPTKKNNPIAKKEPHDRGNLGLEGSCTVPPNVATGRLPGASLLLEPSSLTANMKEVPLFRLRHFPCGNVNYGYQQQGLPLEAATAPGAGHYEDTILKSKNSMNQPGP

kinases (KINOMEscan panel) (Homo sapiens, UniProt P23458), sequence (P23458 whole entry): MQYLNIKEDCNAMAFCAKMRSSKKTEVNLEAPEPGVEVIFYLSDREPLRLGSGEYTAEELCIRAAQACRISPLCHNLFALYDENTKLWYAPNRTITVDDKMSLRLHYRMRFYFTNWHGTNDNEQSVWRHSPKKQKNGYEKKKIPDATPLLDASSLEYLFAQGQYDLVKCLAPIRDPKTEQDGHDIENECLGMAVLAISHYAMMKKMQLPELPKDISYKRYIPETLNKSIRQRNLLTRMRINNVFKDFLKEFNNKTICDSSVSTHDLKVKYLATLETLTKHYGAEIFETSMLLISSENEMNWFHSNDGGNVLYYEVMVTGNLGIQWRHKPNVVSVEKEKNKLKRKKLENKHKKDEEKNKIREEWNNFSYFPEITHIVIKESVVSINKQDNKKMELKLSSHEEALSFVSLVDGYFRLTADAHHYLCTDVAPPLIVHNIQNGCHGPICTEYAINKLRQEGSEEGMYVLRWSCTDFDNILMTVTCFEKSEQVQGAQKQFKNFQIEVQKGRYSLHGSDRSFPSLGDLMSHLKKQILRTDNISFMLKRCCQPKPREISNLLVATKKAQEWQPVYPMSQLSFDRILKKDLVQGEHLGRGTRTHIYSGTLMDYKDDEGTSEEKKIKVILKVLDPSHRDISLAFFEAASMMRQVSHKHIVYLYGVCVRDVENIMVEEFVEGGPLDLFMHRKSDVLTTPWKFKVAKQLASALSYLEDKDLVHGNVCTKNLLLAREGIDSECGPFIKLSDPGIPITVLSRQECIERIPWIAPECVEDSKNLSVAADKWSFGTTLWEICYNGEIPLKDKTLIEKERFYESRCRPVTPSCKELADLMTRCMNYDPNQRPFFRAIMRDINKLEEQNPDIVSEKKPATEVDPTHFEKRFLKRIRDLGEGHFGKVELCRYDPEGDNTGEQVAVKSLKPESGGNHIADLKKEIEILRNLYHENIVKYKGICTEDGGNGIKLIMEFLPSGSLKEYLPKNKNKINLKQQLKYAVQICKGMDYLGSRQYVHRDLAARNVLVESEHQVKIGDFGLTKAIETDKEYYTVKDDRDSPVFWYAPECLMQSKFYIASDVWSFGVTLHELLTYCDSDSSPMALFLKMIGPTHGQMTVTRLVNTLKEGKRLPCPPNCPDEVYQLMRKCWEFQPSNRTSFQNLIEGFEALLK
kinases (KINOMEscan panel) (Homo sapiens, UniProt P48736), sequence (P48736 whole entry): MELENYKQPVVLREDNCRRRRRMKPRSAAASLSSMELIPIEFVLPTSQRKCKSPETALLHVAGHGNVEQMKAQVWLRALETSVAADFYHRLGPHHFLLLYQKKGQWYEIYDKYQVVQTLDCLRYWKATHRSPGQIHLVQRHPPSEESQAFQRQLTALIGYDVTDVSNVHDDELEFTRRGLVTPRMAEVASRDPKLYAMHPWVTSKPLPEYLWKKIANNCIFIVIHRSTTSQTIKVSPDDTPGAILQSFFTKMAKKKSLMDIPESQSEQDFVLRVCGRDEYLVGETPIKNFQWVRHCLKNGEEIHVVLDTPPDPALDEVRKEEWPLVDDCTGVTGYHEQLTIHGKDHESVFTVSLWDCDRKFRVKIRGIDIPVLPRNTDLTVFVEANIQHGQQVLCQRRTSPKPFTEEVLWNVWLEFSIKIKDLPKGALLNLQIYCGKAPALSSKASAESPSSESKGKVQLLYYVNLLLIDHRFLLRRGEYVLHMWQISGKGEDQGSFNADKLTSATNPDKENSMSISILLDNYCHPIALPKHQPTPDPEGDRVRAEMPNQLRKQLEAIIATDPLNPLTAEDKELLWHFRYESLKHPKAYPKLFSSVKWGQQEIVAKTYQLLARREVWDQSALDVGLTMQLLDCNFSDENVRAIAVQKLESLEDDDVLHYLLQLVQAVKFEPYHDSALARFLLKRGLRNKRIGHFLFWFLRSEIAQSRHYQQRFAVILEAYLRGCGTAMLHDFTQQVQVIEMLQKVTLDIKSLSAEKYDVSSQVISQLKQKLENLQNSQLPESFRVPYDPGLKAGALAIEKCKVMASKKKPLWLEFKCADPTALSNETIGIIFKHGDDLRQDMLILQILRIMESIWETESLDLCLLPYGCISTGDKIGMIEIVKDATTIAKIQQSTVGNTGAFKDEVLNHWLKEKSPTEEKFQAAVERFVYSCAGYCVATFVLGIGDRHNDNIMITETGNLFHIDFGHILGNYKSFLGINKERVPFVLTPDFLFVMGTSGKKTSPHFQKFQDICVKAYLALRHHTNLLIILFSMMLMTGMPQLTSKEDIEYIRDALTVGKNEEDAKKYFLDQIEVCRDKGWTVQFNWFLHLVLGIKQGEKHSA
kinases (KINOMEscan panel) (Homo sapiens, UniProt P48729), sequence (P48729 whole entry): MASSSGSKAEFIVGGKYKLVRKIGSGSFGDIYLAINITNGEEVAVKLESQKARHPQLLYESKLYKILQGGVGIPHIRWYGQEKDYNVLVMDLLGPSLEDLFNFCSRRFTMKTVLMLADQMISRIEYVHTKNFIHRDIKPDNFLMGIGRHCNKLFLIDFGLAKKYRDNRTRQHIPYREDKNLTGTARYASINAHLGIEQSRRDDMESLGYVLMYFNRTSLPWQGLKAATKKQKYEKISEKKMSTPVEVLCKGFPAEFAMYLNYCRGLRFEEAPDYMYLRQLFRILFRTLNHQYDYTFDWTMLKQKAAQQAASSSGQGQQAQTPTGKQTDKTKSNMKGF
kinases (KINOMEscan panel) (Homo sapiens, UniProt O60331), sequence (O60331 whole entry): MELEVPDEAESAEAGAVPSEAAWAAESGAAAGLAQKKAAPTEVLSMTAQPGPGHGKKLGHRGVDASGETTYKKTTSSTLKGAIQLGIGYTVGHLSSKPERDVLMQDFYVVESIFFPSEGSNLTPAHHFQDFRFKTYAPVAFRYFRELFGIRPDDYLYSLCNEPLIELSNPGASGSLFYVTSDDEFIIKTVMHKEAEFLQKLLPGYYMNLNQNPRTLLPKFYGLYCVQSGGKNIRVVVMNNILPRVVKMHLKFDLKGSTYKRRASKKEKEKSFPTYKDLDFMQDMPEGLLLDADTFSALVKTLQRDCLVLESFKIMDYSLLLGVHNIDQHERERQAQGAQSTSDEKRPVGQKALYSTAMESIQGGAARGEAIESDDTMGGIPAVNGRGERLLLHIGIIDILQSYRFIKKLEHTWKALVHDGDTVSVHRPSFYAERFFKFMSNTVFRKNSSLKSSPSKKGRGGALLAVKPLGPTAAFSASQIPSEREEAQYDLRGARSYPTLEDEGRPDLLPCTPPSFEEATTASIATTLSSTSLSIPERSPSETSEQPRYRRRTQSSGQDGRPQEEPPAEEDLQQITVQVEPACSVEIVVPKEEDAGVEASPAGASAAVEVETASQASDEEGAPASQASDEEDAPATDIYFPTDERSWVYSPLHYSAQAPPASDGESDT

Regarding `Cc1cccc(-c2nc(Nc3ccncc3)c3ccccc3n2)n1` [NK215], the “KINOMEscan CSNK1A1” value in data set [1] is 46. Moreover, the “KINOMEscan DCLK2” value in data set [2] was 0. For the same molecule, the “KINOMEscan PIP4K2B” value in data set [3] is recorded as 0. The “KINOMEscan PIP5K1C” value in data set [4] is 40. Also, the “KINOMEscan PIK3CG” value in data set [5] is listed as 0. Further, in data set [6], the “KINOMEscan JAK1(JH1domain-catalytic)” value was 0. For the same molecule, in data set [7], the “KINOMEscan BMPR2” value is listed as 0. The “KINOMEscan ALK” value in data set [8] is given as 0.
